Data as given in US20080038220A1 (LABORATOIRES BESINS INTERNATIONAL, priority 2004, published 2008).
≈ marks a conversion by molar mass, not a printed value. Where two headings read alike, the source gives them in different places.

How the values were obtained:
[1] = Testosterone solubility by the increment method; format: physicochemical; settings: thermodynamic from solid
Description: A known amount of solvent (2 mL) is stirred at 37° C. in a closed Erlenmeyer.

[2] = target: sex hormone binding globulin, albumin (Homo sapiens, UniProt P02768); settings: cited from earlier work
Sequence of sex hormone binding globulin, albumin (Homo sapiens, UniProt P02768) (P02768 25-609): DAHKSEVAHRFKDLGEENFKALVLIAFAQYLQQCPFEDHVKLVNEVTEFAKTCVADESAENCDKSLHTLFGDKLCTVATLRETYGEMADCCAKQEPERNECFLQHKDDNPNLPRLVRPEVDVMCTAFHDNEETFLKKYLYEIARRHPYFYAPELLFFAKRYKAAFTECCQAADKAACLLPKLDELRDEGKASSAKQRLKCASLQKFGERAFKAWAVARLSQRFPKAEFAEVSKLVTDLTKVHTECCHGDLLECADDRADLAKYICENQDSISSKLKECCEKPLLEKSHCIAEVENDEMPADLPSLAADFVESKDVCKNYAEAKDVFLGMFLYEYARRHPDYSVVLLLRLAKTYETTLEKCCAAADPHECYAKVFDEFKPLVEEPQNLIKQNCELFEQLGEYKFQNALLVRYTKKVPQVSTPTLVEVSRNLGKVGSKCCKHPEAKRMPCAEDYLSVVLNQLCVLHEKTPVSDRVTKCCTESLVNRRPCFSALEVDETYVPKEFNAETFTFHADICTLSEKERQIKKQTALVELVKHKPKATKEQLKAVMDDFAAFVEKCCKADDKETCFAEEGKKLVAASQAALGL

[3] = system: sex hormone binding globulin, albumin; settings: cited from earlier work
[4] = target: T1, sex hormone binding globulin, albumin (Homo sapiens, UniProt P04278); settings: cited from earlier work
T1 sequence (P04278 30-402): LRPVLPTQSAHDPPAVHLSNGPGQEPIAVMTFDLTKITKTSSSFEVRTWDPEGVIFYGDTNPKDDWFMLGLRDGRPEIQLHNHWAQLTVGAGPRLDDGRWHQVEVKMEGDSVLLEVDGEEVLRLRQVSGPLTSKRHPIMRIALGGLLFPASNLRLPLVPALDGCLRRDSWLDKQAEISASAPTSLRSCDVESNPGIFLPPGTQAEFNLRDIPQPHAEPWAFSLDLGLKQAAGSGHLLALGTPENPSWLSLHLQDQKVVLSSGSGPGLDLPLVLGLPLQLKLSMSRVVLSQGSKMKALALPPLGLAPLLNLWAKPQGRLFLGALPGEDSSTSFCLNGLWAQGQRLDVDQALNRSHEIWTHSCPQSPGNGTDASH

C[C@]12CC[C@H]3[C@@H](CCC4=CC(=O)CC[C@@]43C)[C@@H]1CC[C@@H]2O [Testosterone]
solubility ([1]; aqueous with cosolvent or surfactant or cyclodextrin, water/ethanol mixture, 95% ethanol (v/v) 63/37, 37° C.): 30 mg/mL (≈ 104 mM)
solubility ([1]; aqueous with cosolvent or surfactant or cyclodextrin, water/ethanol mixture, 95% ethanol (v/v) 74/26, 37° C.): 52 mg/mL (≈ 180 mM)
solubility ([1]; aqueous with cosolvent or surfactant or cyclodextrin, water/ethanol mixture, 95% ethanol (v/v) 84/16, 37° C.): 120 mg/mL (≈ 416 mM)
solubility ([1]; aqueous with cosolvent or surfactant or cyclodextrin, water/ethanol mixture, 95% ethanol (v/v) 86/14, 37° C.): 160 mg/mL (≈ 555 mM)
solubility ([1]; oleic acid (OA) 100%, oil or lipid, solvent OA (100%), 37° C.): 66 mg/mL (≈ 229 mM)
solubility ([1]; organic solvent or mixture, solvent Transcutol (100%), 37° C.): 140 mg/mL (≈ 485 mM)
solubility ([1]; organic solvent or mixture, water/ethanol mixture, 95% ethanol (v/v) 100/0, 37° C.): 340 mg/mL (≈ 1180 mM)
solubility ([1]; propylene glycol (PG) 100%, organic solvent or mixture, solvent PG (100%), 37° C.): 86 mg/mL (≈ 298 mM)
solubility ([1]; propylene glycol dipelargonate (PGDP) 100%, oil or lipid, solvent PGDP (100%), 37° C.): 18 mg/mL (≈ 62.4 mM)
solubility ([1]; propylene glycol/oleic acid (PG/OA) 50/50, organic solvent or mixture, solvent PG/OA (50/50), 37° C.): 79 mg/mL (≈ 274 mM)
share bound weakly to albumin ([2]; men): 60%
share bound weakly to albumin ([2]; women): 34%
bound to protein in the blood ([3]; men): 98%
bound to protein in the blood ([3]; women): 98%
share of the binding to sex hormone binding globulin ([4]; men): approximately 40%
share of the binding to sex hormone binding globulin ([4]; women): approximately 66%
